Assays:
hepsin = biological target: T1, hepsin (Homo sapiens, UniProt P05981); test: fluorescent kinetic enzyme inhibition assay
T1 construct: gene HPN

matriptase = biological target: T2, matriptase (Homo sapiens, UniProt Q9Y5Y6); test: fluorescent kinetic enzyme inhibition assay; type: biochemical
T2 construct: gene ST14; recombinant catalytic domain (#3946-SEB, R&D Systems)
T2 sequence (Q9Y5Y6 615-855 limits assumed): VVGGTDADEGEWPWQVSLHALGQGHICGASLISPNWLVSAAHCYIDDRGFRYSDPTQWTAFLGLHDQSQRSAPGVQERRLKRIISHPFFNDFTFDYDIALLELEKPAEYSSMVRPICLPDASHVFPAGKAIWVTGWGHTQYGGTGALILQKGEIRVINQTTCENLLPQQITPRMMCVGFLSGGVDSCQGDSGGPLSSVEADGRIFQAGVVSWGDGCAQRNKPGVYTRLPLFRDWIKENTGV

T1 sequence (P05981 45-162 limits assumed): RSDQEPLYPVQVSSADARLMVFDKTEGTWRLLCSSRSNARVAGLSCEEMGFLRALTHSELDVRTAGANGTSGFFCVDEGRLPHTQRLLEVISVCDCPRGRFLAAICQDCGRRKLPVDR
T1 sequence (P05981 163-417 limits assumed): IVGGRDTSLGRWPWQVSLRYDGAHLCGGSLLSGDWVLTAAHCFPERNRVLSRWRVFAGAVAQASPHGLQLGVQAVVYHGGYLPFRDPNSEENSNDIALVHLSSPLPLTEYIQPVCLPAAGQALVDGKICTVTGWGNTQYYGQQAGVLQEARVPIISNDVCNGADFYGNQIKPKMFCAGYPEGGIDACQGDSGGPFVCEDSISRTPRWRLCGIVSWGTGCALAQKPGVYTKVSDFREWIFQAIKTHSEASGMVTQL

| Structure (SMILES) | Ki (hepsin) | Ki (matriptase) |
| --- | --- | --- |
| N=C(N)NCCC[C@H](NC(=O)[C@H](CC(N)=O)NC(=O)OCC1c2ccccc2-c2ccccc21)C(=O)c1nc2ccccc2s1 [ZFH7185-3] | 1.7 nM | 106 nM |
| N=C(N)NCCC[C@H](NC(=O)CNC(=O)OCC1c2ccccc2-c2ccccc21)C(=O)c1nc2ccccc2s1 [ZFH7185-8] | 831 nM | 0.13 nM |

From PMC6320337, “Hepatocyte growth factor activator inhibitor-2 stabilizes Epcam and maintains epithelial organization in the mouse intestine” (Communications Biology, 2019)
